Measurements as given in ChEMBL document CHEMBL1201862, “PubChem BioAssay data set” (2004).
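In this assay, cells in 96-well plates receive the compound at five concentrations for 48 hours. Endpoints are linearly interpolated between the surrounding concentrations. GI50: concentration for 50% inhibition of growth.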 Active and inactive are the calls of the source. Cut-off read from the data, not from the text of the source: active = GI50 up to about 1.1 µM and inactive = higher.

What was measured:
Test in all cases: NCI anticancer screen, dose series, 48 h
[1] = test system: 786-0
[2] = test system: BT-549
[3] = test system: HT-29
[4] = test system: K562
[5] = test system: KM12
[6] = test system: LOX IMVI
[7] = test system: MOLT-4
[8] = test system: NCI-H460
[9] = test system: NCI/ADR-RES
[10] = test system: OVCAR-5
[11] = test system: PC-3
[12] = test system: RPMI-8226
[13] = test system: SK-MEL-2
[14] = test system: SK-MEL-5
[15] = test system: SN12C
[16] = test system: SNB-75
[17] = test system: SR
[18] = test system: U-251
[19] = test system: UACC-257
[20] = test system: UACC-62

Measured: GI50

O=C(CCCCCCCCC(=O)NN1C(=O)/C(=C\c2ccc(O)c(O)c2)SC1c1c(O)ccc2ccccc12)NN1C(=O)C(=Cc2ccc(O)c(O)c2)SC1c1c(O)ccc2ccccc12 (stereo not drawn)
inactive: [1] 3.46 µM | [2] > 36.9 µM | [3] 10.8 µM | [4] 5.64 µM | [5] 23.9 µM | [6] 1.79 µM | [7] 2.48 µM | [8] 4.62 µM | [9] 10.6 µM | [10] > 49.5 µM | [11] 10.9 µM | [12] 3.85 µM | [13] 5.97 µM | [14] 1.93 µM | [15] 27.2 µM | [16] 60.4 µM | [17] 4.42 µM | [18] 12.5 µM | [19] 10.7 µM | [20] 4.74 µM

COc1ccc(N2C(=O)C3CC4=CC(=O)C[C@H]4[C@H]32)cc1 (stereo partly drawn)
inactive: [1] 26.3 µM | [2] 14.9 µM | [4] 64.9 µM | [5] 44 µM | [6] 53.1 µM | [7] > 100 µM | [8] 58.2 µM | [9] 44.1 µM | [10] 88.1 µM | [11] 28.4 µM | [12] 59.8 µM | [13] > 100 µM | [15] 29.4 µM | [16] 93.5 µM | [17] 55.7 µM | [18] 67.9 µM | [19] 64.9 µM | [20] 45.2 µM

N#CCN1CCCN(CC#N)CCN(CC#N)CCCN(CC#N)CC1
inactive: [1] > 100 µM | [2] > 100 µM | [3] > 10 µM | [4] > 100 µM | [5] 39.9 µM | [6] 16.7 µM | [7] > 100 µM | [8] > 100 µM | [9] > 100 µM | [10] > 100 µM | [11] > 100 µM | [12] 54.5 µM | [13] > 100 µM | [14] > 100 µM | [15] > 100 µM | [16] > 100 µM | [17] > 100 µM | [18] > 100 µM | [19] > 100 µM | [20] > 100 µM

CCN(CC)C1C(=O)NC1C#Cc1ccccc1 (stereo not drawn)
inactive: [1] > 100 µM | [2] 61.9 µM | [3] 48 µM | [4] 42.3 µM | [5] > 100 µM | [6] 39.7 µM | [7] > 10 µM | [8] > 100 µM | [9] > 100 µM | [10] > 100 µM | [11] > 100 µM | [12] 76.7 µM | [13] > 100 µM | [14] 26.4 µM | [15] > 100 µM | [16] > 100 µM | [17] 32 µM | [18] > 100 µM | [19] > 100 µM | [20] > 100 µM

N#Cc1c(N2CCOCC2)ncn(-c2ccccc2)c1=O
inactive: [1] > 100 µM | [2] > 100 µM | [4] > 100 µM | [5] > 100 µM | [6] > 100 µM | [7] > 100 µM | [8] > 100 µM | [9] > 100 µM | [10] > 100 µM | [11] > 100 µM | [12] > 100 µM | [13] > 100 µM | [14] > 100 µM | [15] > 100 µM | [16] > 100 µM | [17] > 100 µM | [18] > 100 µM | [19] > 100 µM | [20] > 100 µM

NN/C(=N\S(=O)(=O)c1cc(S(=O)(=O)c2ccccc2)cs1)Nc1ccc(Cl)cc1
inactive: [1] 35.2 µM | [2] 31.2 µM | [3] 36.1 µM | [4] 18.7 µM | [5] 26.1 µM | [6] 21.2 µM | [7] 18.6 µM | [8] 22.5 µM | [9] 29.6 µM | [10] 66.2 µM | [11] 23.3 µM | [12] 22.7 µM | [13] 16.7 µM | [14] 16.9 µM | [15] 28.4 µM | [16] 21.9 µM | [17] 9.71 µM | [18] 23.5 µM | [19] 19 µM | [20] 17.5 µM

CCOC(=O)c1cc(C)nc2c1c(=O)n(-c1ccccc1)c(=O)n2CCCCN1CCN(c2ncccn2)CC1
inactive: [1] > 100 µM | [2] 45.1 µM | [3] > 100 µM | [4] 39.1 µM | [5] > 100 µM | [6] 56.9 µM | [7] 11.3 µM | [9] > 100 µM | [10] > 100 µM | [11] 61.4 µM | [12] 23.8 µM | [13] > 100 µM | [14] 35.2 µM | [15] > 100 µM | [16] 59 µM | [17] 29.9 µM | [18] > 100 µM | [19] 52.4 µM | [20] 37.2 µM

Cc1ccc(C(=O)c2[nH]c(Nc3ccc(Cl)cc3)c(C(=S)Nc3ccccc3)c2N)cc1
inactive: [1] 2.74 µM | [2] 8.04 µM | [3] 4.43 µM | [4] 7.38 µM | [5] 5.26 µM | [6] 3.91 µM | [7] 12.1 µM | [8] 4.2 µM | [9] 4.37 µM | [10] 11 µM | [11] 6.84 µM | [12] 5.05 µM | [13] 14.5 µM | [15] 13.1 µM | [16] 2.94 µM | [17] 2.05 µM | [18] 3.01 µM | [19] 18.7 µM | [20] 14.4 µM

Clc1ccc(-c2cc3nc4ccccc4nc3o2)cc1
inactive: [1] 37.1 µM | [2] 35 µM | [3] > 100 µM | [4] > 100 µM | [5] > 100 µM | [6] > 100 µM | [7] > 100 µM | [8] > 100 µM | [9] 52.5 µM | [10] > 100 µM | [11] > 100 µM | [12] > 100 µM | [13] > 100 µM | [14] > 100 µM | [16] 15.3 µM | [17] > 100 µM | [18] 29.9 µM | [19] 34.8 µM | [20] 38.3 µM

CC(C)[Si](OC1=C(c2ccccc2)C(NC(=O)/C=C/c2ccc([N+](=O)[O-])cc2)CCC1)(C(C)C)C(C)C (stereo not drawn)
inactive: [1] > 100 µM | [2] > 100 µM | [3] > 100 µM | [4] > 100 µM | [5] > 100 µM | [6] > 100 µM | [7] > 100 µM | [8] > 100 µM | [9] > 100 µM | [10] > 100 µM | [11] > 100 µM | [12] 9.71 µM | [13] > 100 µM | [14] > 100 µM | [16] > 100 µM | [17] > 100 µM | [18] > 100 µM | [19] > 100 µM | [20] > 100 µM
